According to patent publication US10226448B2, “3-(1H-pyrrolo[3,2-C]pyridin-2-yl)-1H-pyrazolo[3,4-B]pyridines and therapeutic uses thereof” (Samumed, LLC, priority 2015, dated 2019):

Columns and labels:
Format in all cases: cell-based
[1] = test system: LL29 cells (primary human fibroblasts derived from IPF patients), α-smooth muscle actin; assay: Inhibition of the fibrotic process: αSMA staining in TGF-β1 treated primary human fibroblasts from IPF patients (LL29 cells); settings: Fibroblast; for EC50: 96 h, LL29 cells, TGF-β1 20 ng/mL, 4 days, % αSMA positive cells; for inhibition at 10 µM: read-out: percent inhibition at 10 μM
In short: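 Read-out after 4-day incubation: αSMA staining with 1 μM SYTOX green nuclear counterstain (30 min, room temperature). Cells were LL29 primary fibroblasts from IPF patients, in 1% FBS F12, exposed to TGF-β1 with test compound, referenced to TGF-β1/DMSO control wells.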

[2] = test system: Wnt activity (Sp5-Luc reporter, TCF/LEF binding sites) in SW480 colon carcinoma cells; assay: Wnt activity screening assay: Sp5-Luc reporter gene assay in SW480 cells; settings: Homo sapiens; for inhibition at 10 µM: SW480, read-out: percent inhibition at 10 μM; for EC50: Sp5-Luc reporter, SW480 cells, overnight incubation
In short: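 SW480 cells stably carrying a luciferase reporter under a human Sp5 promoter with eight TCF/LEF sites, plated at 4,000 cells/well in 1% FBS medium. Luminescence read with BrightGlo, normalized to DMSO-treated cells; EC50 from four-parameter variable-slope nonlinear regression.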

[3] = test system: SW480 colon cancer cells; assay: Cell viability assay (CellTiter-Blue) in SW480 colon cancer cells; settings: Homo sapiens; for EC50: 96 h, SW480 cell viability, four days, CellTiter-Blue; for inhibition at 10 µM: SW480, read-out: percent inhibition at 10 μM
In short: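 Fluorescence from resazurin reduced to resorufin by metabolically active cells was the read-out, taken after ~3 h with CellTiter-Blue.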

[4] = test system: IL-6 in THP-1 cells; assay: IL-6 inhibition in LPS-stimulated THP-1 human monocyte cells (HTRF); settings: for EC50: IL-6 inhibition, LPS-stimulated THP-1 cells, HTRF, 10-point dose-response starting from 10 μM; for inhibition at 10 µM: THP-1, read-out: percentage in parentheses beside EC50 >10
In short: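 THP-1 cells were serum-reduced (1% FBS, 24 h), plated at 5000 cells/well with compound for 2 h at 37 °C, then stimulated 22 h with 500 ng/mL LPS. Secreted IL-6 was quantified by HTRF (665/620 nm ratio). Signals were normalised to DMSO, and EC50 was fitted by four-parameter nonlinear regression.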

[5] = test system: primary human mesenchymal stem cells (hMSCs); assay: Induction of chondrogenesis in primary human mesenchymal stem cells (chondrogenic nodules, Rhodamine B / Nile Red); settings: 6 days; for EC50: concentration required to induce 50% levels of chondrogenesis vs TGF-β3, read-out: Conc (nM) of 50% TGF-β3 activity; for Emax: relative to TGF-β3 (10 ng/mL) positive control, read-out: Max. Activity as % TGF-β3 activity
Description: Representative compounds were screened using primary human mesenchymal stem cells (hMSCs) to determine their ability to induce chondrogenesis (process by which cartilage is developed).
Human Mesenchymal Stem Cell Culture: Primary human mesenchymal stem cells (hMSCs) were purchased from Lonza (Walkersville, Md.) and expanded in Mesenchymal Stem Cell Growth Media (Lonza). Cells between passage 3 and 6 were used for the experiments.
To image chondrogenic nodules, the cells were fixed using 4% formaldehyde (Electron Microscopy Sciences), and stained with 2 μg/mL Rhodamine B (Sigma-Aldrich) and 20 μM Nile Red (Sigma-Aldrich) [Johnson K., et. al, A Stem Cell-Based Approach to Cartilage Repair, Science, (2012). […] Number of nodules in each well was normalized to the average of 3 DMSO treated wells on the same plate using Excel (Microsoft Inc.). The normalized averages (fold change over DMSO) of 3 replicate wells for each compound concentration were calculated. Due to solubility limitations of some of the compounds, curve fitting was incomplete leading to inaccurate EC50 determinations.
Using TGF-β3 as a positive control, the concentration of representative compounds required to induce 50% levels of chondrogenesis is reported. In addition, the maximum activity of each compound and the respective dose that each compound reached maximum chondrogenesis activity is reported.

SMILES | EC50 [1] [µM] | inhibition at 10 µM [2] [%] | EC50 [2] [µM] | EC50 [3] [µM] | EC50 [4] [µM] | inhibition at 10 µM [4] [%] | EC50 [5] [nM] | Emax [5] [%] | inhibition at 10 µM [3] [%] | inhibition at 10 µM [1] [%]
CCCCC(=O)Nc1cncc(-c2cnc3[nH]nc(-c4cc5c(-c6ccc(F)cc6)nccc5[nH]4)c3c2)c1 [Compound 47, N-(5-(3-(4-(4-Fluorophenyl)-1H-pyrrolo[3,2-c]pyridin-2-yl)-1H-pyrazolo[3,4-b]pyridin-5-yl)pyridin-3-yl)pentanamide] | 0.073 | 46.9 | > 10 | 0.839 | > 10 | 24.7 | 30 | 85 |  | 
CN1CCN(c2nccc3[nH]c(-c4n[nH]c5ncc(-c6cncc(NC(=O)c7ccccc7)c6)cc45)cc23)CC1 [Compound 235, N-(5-(3-(4-(4-Methylpiperazin-1-yl)-1H-pyrrolo[3,2-c]pyridin-2-yl)-1H-pyrazolo[3,4-b]pyridin-5-yl)pyridin-3-yl)benzamide] | 0.891 |  | 3.24 | > 10 | 6.98 |  |  | 63 | 19.1 | 
Nc1cncc(-c2cnc3[nH]nc(-c4cc5c(-c6ccncc6)nccc5[nH]4)c3c2)c1 [Compound 115, 5-(3-(4-(Pyridin-4-yl)-1H-pyrrolo[3,2-c]pyridin-2-yl)-1H-pyrazolo[3,4-b]pyridin-5-yl)pyridin-3-amine] | > 10 | 9.3 | > 10 | > 10 | > 10 | 9.7 | 30 | 53 | 10.1 | 53.8
CCC(=O)Nc1cncc(-c2cnc3[nH]nc(-c4cc5c(-c6cccc(F)c6)nccc5[nH]4)c3c2)c1 [Compound 1, N-(5-(3-(4-(3-Fluorophenyl)-1H-pyrrolo[3,2-c]pyridin-2-yl)-1H-pyrazolo[3,4-b]pyridin-5-yl)pyridin-3-yl)propionamide] | 0.606 |  | 0.272 | 0.63 | 0.242 |  | 300 | 114 |  | 
Cc1ccncc1-c1cnc2[nH]nc(-c3cc4c(-c5cc(F)cc(CNS(C)(=O)=O)c5)nccc4[nH]3)c2c1 [Compound 481, N-(3-Fluoro-5-(2-(5-(4-methylpyridin-3-yl)-1H-pyrazolo[3,4-b]pyridin-3-yl)-1H-pyrrolo[3,2-c]pyridin-4-yl)benzyl)methanesulfonamide] | 0.6 |  | 0.662 | 1.5 | 0.307 |  | 900 | 173 |  | 
O=C(Nc1cncc(-c2cnc3[nH]nc(-c4cc5c(-c6ccccc6F)nccc5[nH]4)c3c2)c1)C1CCCC1 [Compound 78, N-(5-(3-(4-(2-Fluorophenyl)-1H-pyrrolo[3,2-c]pyridin-2-yl)-1H-pyrazolo[3,4-b]pyridin-5-yl)pyridin-3-yl)cyclopentanecarboxamide] | > 10 |  | 0.96 | 0.651 | 0.505 |  |  | 51 |  | 12.7
c1cncc(-c2cnc3[nH]nc(-c4cc5c(N6CCCCC6)nccc5[nH]4)c3c2)c1 [Compound 172, 3-(4-(Piperidin-1-yl)-1H-pyrrolo[3,2-c]pyridin-2-yl)-5-(pyridin-3-yl)-1H-pyrazolo[3,4-b]pyridine] | 1.33 |  | 4.02 | 1.16 | 0.484 |  | 900 | 169 |  | 
c1cc2[nH]c(-c3n[nH]c4ncc(-c5cncc(CN6CCCCC6)c5)cc34)cc2cn1 [Compound 267, 5-(5-(Piperidin-1-ylmethyl)pyridin-3-yl)-3-(1H-pyrrolo[3,2-c]pyridin-2-yl)-1H-pyrazolo[3,4-b]pyridine] | 1.85 |  | 1.54 | 1.24 | 1.55 |  |  | 40 |  | 
O=C(Nc1cncc(-c2cnc3[nH]nc(-c4cc5c(-c6ccccc6F)nccc5[nH]4)c3c2)c1)C1CC1 [Compound 76, N-(5-(3-(4-(2-Fluorophenyl)-1H-pyrrolo[3,2-c]pyridin-2-yl)-1H-pyrazolo[3,4-b]pyridin-5-yl)pyridin-3-yl)cyclopropanecarboxamide] | 2.7 |  | 0.321 | 0.45 | 0.053 |  | 30 | 78 |  | 
CS(=O)(=O)NCc1cc(F)cc(-c2nccc3[nH]c(-c4n[nH]c5ncc(-c6cncc(NC(=O)C7CCC7)c6)cc45)cc23)c1 [Compound 497, N-(5-(3-(4-(3-Fluoro-5-(methylsulfonamidomethyl)phenyl)-1H-pyrrolo[3,2-c]pyridin-2-yl)-1H-pyrazolo[3,4-b]pyridin-5-yl)pyridin-3-yl)cyclobutanecarboxamide] | > 10 |  | 3.64 | > 10 | 0.124 |  | 300 | 52 | 48 | 0
CN1CCN(c2nccc3[nH]c(-c4n[nH]c5ncc(-c6cncc(CN7CCCCC7)c6)cc45)cc23)CC1 [Compound 239, 3-(4-(4-Methylpiperazin-1-yl)-1H-pyrrolo[3,2-c]pyridin-2-yl)-5-(5-(piperidin-1-ylmethyl)pyridin-3-yl)-1H-pyrazolo[3,4-b]pyridine] | > 10 | 55 | > 10 | 3.8 | 3.28 |  |  | 24 |  | 28.8
Fc1ccccc1-c1nccc2[nH]c(-c3n[nH]c4ncc(-c5cn[nH]c5)cc34)cc12 [Compound 539, 3-(4-(2-Fluorophenyl)-1H-pyrrolo[3,2-c]pyridin-2-yl)-5-(1H-pyrazol-4-yl)-1H-pyrazolo[3,4-b]pyridine] | 0.076 |  | 0.056 | 0.261 | 0.101 |  |  | 49 |  | 
Fc1ccc(-c2nccc3[nH]c(-c4n[nH]c5ncc(-c6cncc(CN7CCCC7)c6)cc45)cc23)cc1 [Compound 42, 3-(4-(4-Fluorophenyl)-1H-pyrrolo[3,2-c]pyridin-2-yl)-5-(5-(pyrrolidin-1-ylmethyl)pyridin-3-yl)-1H-pyrazolo[3,4-b]pyridine] | 0.72 |  | 1.57 | 0.535 | 3.99 |  | 10 | 105 |  | 
CN(C)c1cncc(-c2cnc3[nH]nc(-c4cc5cnccc5[nH]4)c3c2)c1 [Compound 259, 5-(3-(1H-Pyrrolo[3,2-c]pyridin-2-yl)-1H-pyrazolo[3,4-b]pyridin-5-yl)-N,N-dimethylpyridin-3-amine] | 1.43 |  | 3.76 | 1.63 | > 10 | 20.1 | 10 | 80 |  | 
CS(=O)(=O)NCc1cc(F)cc(-c2nccc3[nH]c(-c4n[nH]c5ncc(-c6cncc(NC(=O)C7CCCCC7)c6)cc45)cc23)c1 [Compound 499, N-(5-(3-(4-(3-Fluoro-5-(methylsulfonamidomethyl)phenyl)-1H-pyrrolo[3,2-c]pyridin-2-yl)-1H-pyrazolo[3,4-b]pyridin-5-yl)pyridin-3-yl)cyclohexane carboxamide] | > 10 |  | 3.63 | > 10 | 3.75 |  |  | 120 | 35.5 | 23.6
